Assay results from patent publication US6667387B1, “HCV core peptides” (priority 1992, dated 2003).
Ends that are not written are not given here.

Key:
[1] = ELISA with seronegative / negative control sera (specificity); assay type: binding, human; conditions: negative serum
Method: (§1) Where peptides were to be coated directly, stock solutions of the peptides were diluted in sodium carbonate buffer, pH 9.6 and used to coat polystyrene microtiter plates at a peptide concentration of 2 to 5 micrograms per milliliter for 1 hour at 37° C.
(§2) In cases where biotinylated peptides were to be evaluated, plates were first coated with streptavidin in sodium carbonate buffer, pH 9.6 at a concentration of 3 micrograms per milliliter for 1 hour at 37° C. The plates were then washed to remove excess, unbound protein. A working solution of the biotinylated peptide at 1 microgram per milliliter in sodium carbonate buffer was then added to the wells of the microtiter plate and incubated for 1 hours at 37° C.
(§3) Once the plates had been coated with antigen, any remaining free binding sites on the plastic were blocked with casein. After washing, a dilution of the appropriate antisera, usually 1:100, was added to the wells of the plates and incubated for 1 hour at 37° C.
(§4) After washing to remove unbound material, specific antibody binding was detected by incubating the plates with goat anti-human immunoglobulin antibodies conjugated to the enzyme horseradish peroxidase. Following removal of unbound conjugate by washing, a solution containing H2O2 and 3,3′,5,5′-tetramethylbenzidine was added.
(§5) Reactions were stopped after a suitable interval by addition of sulfuric acid. […] Absorbance measurements were made at a wavelength of 450 nanometers and all data are expressed as an optical density value at this wavelength.
(§6) Unbiotinylated HCV peptide I was coated directly onto the wells of a polystyrene ELISA plate at a concentration of 3 micrograms per milliliter in sodium carbonate buffer, pH 9.6. Biotinylated HCV peptide I was bound to streptavidin-coated wells using a stock solution containing the peptide at a concentration of 1 microgram per milliliter. The resulting plates were then incubated in parallel with a panel of sera from HCV-seropositive donors. […] Two of the sera (8326 and 8244) recognize the biotinylated version of this peptide far better than the unbiotinylated version. The specificity of the antibody reaction is also reflected by the low optical density values obtained for 5 serum samples from uninfected donors (F88, F89, F76, F136, and F6).
To determine how well biotinylated peptides would function in a mixture when bound to streptavidin- or avidin-coated plates, two mixtures were made of the N-terminally biotinylated versions of the HIV-1 peptides TM-HIV-1 (hereabove referred to as 1a.1) and V3-nm (hereabove referred to as 1b.4), the HIV-2 peptide TM-HIV-2 (hereabove referred to as 2a), and the hepatitis C virus peptides II, IX, and XVIII. Mixture A contained each of the six biotinylated peptides at a concentration of 1 microgram per milliliter (6 micrograms per milliliter peptide, total) while in mixture B, each peptide was present at a concentration of 0.1 microgram per milliliter (0.6 microgram per milliliter peptide, total). The individual peptides were coated at a concentration of 1 microgram per milliliter. For purposes of comparison, mixtures A and B were also coated directly onto the wells of a microtiter plate. Samples from HIV-1, HIV-2, and HCV-seropositive donors were tested and compared to sera from seronegative blood donors. A cut-off absorbance value of 0.250 was used to determine whether a reaction was positive or negative. Absorbance values equal or greater than 0.250 were considered positive while absorbance values below this value were considered negative.

[2] = tested on: antibodies in sera from HCV-seropositive donors; test: ELISA with HCV antibody-positive sera (biotinylated peptides on streptavidin- or avidin-coated plates, unbiotinylated peptides coated directly); assay type: binding, human; conditions: for optical density (450 nm): 20-fold dilution; for PEPTIDE ELISA (O.D.): Table 12, biotinylated 20-mers
Method: as §1, §2, §3, §4, §5
The unbiotinylated peptides were adsorbed onto the wells of polystyrene microtiter plates at a concentration of 3 micrograms per milliliter.
The biotinylated peptides were bound at a concentration of 1 microgram per milliliter to streptavidin-coated microtiter plates. Sera known to contain antibodies to these peptides were used for the evaluation and were tested at a 20-fold dilution.
To investigate further the enhanced antibody recognition of biotinylated HCV peptides bound to streptavidin or avidin as compared to direct adsorption on plastic, the influence of peptide coating concentration was investigated. Three peptides (HCV peptides II, XI, and XVI) were coated in concentrations ranging from 10 nanograms per milliliter to 3 micrograms per milliliter in a volume of 200 microliters per microtiter plate well. For direct coating, the unbiotinylated versions of these peptides were used. The biotinylated versions of these peptides were used to coat wells to which streptavidin had previously been adsorbed. Sera known to contain antibodies to these peptides were used at a dilution of 1 to 100 to evaluate the magnitude of antibody binding.
as §6
To determine how well biotinylated peptides would function in a mixture when bound to streptavidin- or avidin-coated plates, two mixtures were made of the N-terminally biotinylated versions of the HIV-1 peptides TM-HIV-1 (hereabove referred to as 1a.1) and V3-nm (hereabove referred to as 1b.4), the HIV-2 peptide TM-HIV-2 (hereabove referred to as 2a), and the hepatitis C virus peptides II, IX, and XVIII. […]

Row | Sequence | optical density (450 nm) ([1]; Table 4D) | optical density (450 nm) ([2]; Table 4D, serum 8241) | optical density (450 nm) ([2]; Table 4D, serum 8242) | optical density (450 nm) ([2]; Table 4D, serum 8243) | optical density (450 nm) ([2]; Table 4D, serum 8247) | optical density (450 nm) ([2]; Table 4D, serum 8248) | optical density (450 nm) ([2]; Table 4D, serum 8250) | optical density (450 nm) ([2]; Table 4D, serum 8271) | optical density (450 nm) ([2]; Table 4D, serum 8272) | optical density (450 nm) ([2]; Table 4D, serum 8273) | optical density (450 nm) ([2]; Table 4D, serum 8274) | optical density (450 nm) ([2]; Table 4D, serum 8275) | optical density (450 nm) ([2]; Table 4D, serum 8276) | optical density (450 nm) ([2]; Table 4D, serum 8277) | PEPTIDE ELISA (O.D.) ([2]; serum 0843) | PEPTIDE ELISA (O.D.) ([2]; serum 8240) | PEPTIDE ELISA (O.D.) ([2]; serum 8241) | PEPTIDE ELISA (O.D.) ([2]; serum 8242) | PEPTIDE ELISA (O.D.) ([2]; serum 8332) | PEPTIDE ELISA (O.D.) ([2]; serum 8339) | further results
1 | RNTNRRPQDVKFPGGGQIVG [listing 1 of 2 here] | 0.06 | 2.066 | 2.197 | 2.368 | 2.398 | 2.918 | 2.626 | 2.066 | 2.638 | 2.697 | 2.905 | 2.640 | 2.674 | 2.327 | 2.368 | 2.918 | 2.066 | 2.197 | 2.054 | 2.765 | PEPTIDE ELISA (O.D.) ([2]; serum 8350): 2.135; PEPTIDE ELISA (O.D.) ([2]; serum 8377): 2.368; PEPTIDE ELISA (O.D.) ([2]; serum 8378): 2.369; PEPTIDE ELISA (O.D.) ([2]; serum 8388): 2.463
2 | RNTNRRPQDVKFPGGGQIVG [listing 2 of 2 here] | 0.050 | 1.219 | 1.976 | 1.859 | 1.072 | 2.742 | 2.471 | 1.471 | 2.471 | 1.543 | 2.503 | 1.595 | 1.976 | 0.735 | – | – | – | – | – | – | –
3 | SQHLPYIEQGMMLAEQFKQK | – | – | – | – | – | – | – | – | – | – | – | – | – | – | 2.268 | 0.182 | 2.280 | 1.625 | 0.575 | 0.043 | optical density (450 nm) ([1]; Table 4A): 0.095; optical density (450 nm) ([2]; Table 4A, serum 2): 1.971; optical density (450 nm) ([2]; Table 4A, serum 3): 2.086; optical density (450 nm) ([2]; Table 4A, serum 4): 1.976; optical density (450 nm) ([2]; Table 4A, serum 6): 0.518; optical density (450 nm) ([2]; Table 4A, serum 8): 2.624; optical density (450 nm) ([2]; Table 4A, serum 10): 2.321; optical density (450 nm) ([2]; Table 4A, serum 11): 2.378; optical density (450 nm) ([2]; Table 4A, serum 23): 2.503; optical density (450 nm) ([2]; Table 4A, serum 31): 2.104; optical density (450 nm) ([2]; Table 4A, serum 33): 1.857; optical density (450 nm) ([2]; Table 4A, serum 49): 2.180; optical density (450 nm) ([2]; Table 4A, serum 77): 0.159; PEPTIDE ELISA (O.D.) ([2]; serum 8350): 0.623; PEPTIDE ELISA (O.D.) ([2]; serum 8377): 2.227; PEPTIDE ELISA (O.D.) ([2]; serum 8378): 1.449; PEPTIDE ELISA (O.D.) ([2]; serum 8388): 1.018; antibody binding to the 20-mers ([2]; serum 8241): very strong
